Results on one compound are retold here after patent US7235664B2, “Anthranilamides with heteroarylsulfonyl side chain, process of preparation, and use” (Sanofi-Aventis Deutschland GmbH, priority 2001, dated 2007).

For orientation: melting point means the temperature, or range, at which the solid turns liquid.

For the compound `CC[C@H](NC(=O)c1cc(F)ccc1NS(=O)(=O)c1cccc2cccnc12)c1ccccc1` [Example 52, (S)-5-Fluoro-2-(quinoline-8-sulfonylamino)-N-(1-phenylpropyl)-benzamide], the melting point is 163 °C.
